Reference: PMC7866863, “A Cellular Assay for the Identification and Characterization of Connexin Gap Junction Modulators” (International Journal of Molecular Sciences, 2021)

Biological target: T1, Cx43 (connexin 43 gap junction) (Mus musculus, UniProt P23242)
T1 construct: gene Gja1; mouse Cx43 coding region, recombinantly expressed in HeLa donor and biosensor cells
Test: HeLa coculture cAMP-transfer GloSensor luminescence assay for Cx43 gap junctions
Format: cell-based

T1 sequence (P23242 2-382): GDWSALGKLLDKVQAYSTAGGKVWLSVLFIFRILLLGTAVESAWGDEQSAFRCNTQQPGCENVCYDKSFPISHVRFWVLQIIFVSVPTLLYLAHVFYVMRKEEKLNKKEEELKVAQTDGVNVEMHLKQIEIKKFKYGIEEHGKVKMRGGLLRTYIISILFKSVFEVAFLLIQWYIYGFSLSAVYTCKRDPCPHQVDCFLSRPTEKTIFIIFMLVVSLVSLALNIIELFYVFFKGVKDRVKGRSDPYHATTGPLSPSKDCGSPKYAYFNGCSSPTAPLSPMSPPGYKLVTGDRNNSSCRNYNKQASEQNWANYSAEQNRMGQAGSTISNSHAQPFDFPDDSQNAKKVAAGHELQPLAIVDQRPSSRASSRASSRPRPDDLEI

- IC50: 44.5 ± 4.8 µM
SMILES: CC1(C)[C@@H](OC(=O)CCC(=O)O)CC[C@]2(C)[C@H]3C(=O)C=C4[C@@H]5C[C@@](C)(C(=O)O)CC[C@]5(C)CC[C@@]4(C)[C@]3(C)CC[C@@H]12 [carbenoxolone]
